Experimental data reported in patent US12635691B2, “Fipronil containing insecticide gels” (Henkel AG & Co. KGaA, priority 2022, dated 2026).
“Also recorded” adds a separate entry of the source.

Test: Migration of fipronil from the gel formula into the container, by container material
Type: physicochemical
Method: When the products are formulated in a gel medium, they are often packaged in the forms of capsules, syringes, or adhesive strips. The packaging materials frequently contain plastics. […] Such plastics may include, but are not limited to, polystyrene/butadiene blend, polyethylene (PE) thermoformed, or PET/PE copolymer […].
Fipronil has a solubility in water around 0.002 g/l (20° C.). At a level of […], fipronil is soluble in the water-based matrix because its solubility in water is 0.002 g/l (20° C., BASF SDS). However, although being soluble in the formula, fipronil tends to migrate, under room temperature conditions and in high temperatures (tested up to 54° C.), into the container (i.e., plastic packaging) depending on the material that the container is made of: • a. […] PET/PE thermoformed→Migration • c. Polyethylene thermoform→Migration • d. Polyethylene injected→No migration • e. Polystyrene→No migration • f. Polystyrene/Butadiene (4%)→migration

## N#Cc1nn(-c2c(Cl)cc(C(F)(F)F)cc2Cl)c(N)c1[S+]([O-])C(F)(F)F (stereo not drawn) [Fipronil, 1-[2,6-Cl2 4-CF3 phenyl] 3-CN 4-[SO—CF3] 5-NH2 pyrazole]
container: Glass (used as reference), room temperature and high temperatures (tested up to 54° C.)
  Migration of fipronil into the container: No migration, formula stable; also recorded: no fipronil migration
container: PET/PE thermoformed, room temperature and up to 54° C.
  Migration of fipronil into the container: Migration
container: Polyethylene injected, room temperature and up to 54° C.
  Migration of fipronil into the container: No migration
container: Polyethylene thermoform, room temperature and up to 54° C.
  Migration of fipronil into the container: Migration
container: Polystyrene/Butadiene (4%), room temperature and up to 54° C.
  Migration of fipronil into the container: migration
container: Polystyrene, room temperature and up to 54° C.
  Migration of fipronil into the container: No migration
